Series [1] in a line: Upregulation of utrophin transcription in mouse H2K cells after 48 hrs by luciferase reporter assay. The format is functional, cell-based. For orientation: A reporter such as luciferase makes a cellular process visible.
Series [2] in a line: Upregulation of utrophin mRNA expression in mouse H2K cells after 72 hrs by RT-PCR analysis relative to control. The format is functional, cell-based.
A short description of series [3]: Aqueous solubility of the compound in 0.01 M phosphate buffered saline at pH 7.4 after 2 hrs by turbidimetric method. Format: physicochemical.
Series [4] in a line: Half life in human liver microsome by LC-MS/MS analysis. The format is ADME. Particulars: liver microsomes. In general terms: Microsomes from liver hold many membrane-bound enzymes, among them those of drug oxidation.
Series [5] is described as follows: Upregulation of utrophin transcription in mouse H2K cells at 10 uM after 48 hrs by luciferase reporter assay relative to 2-(4-(diethylamino)phenyl)-6-methyl-2H-benzo[d][1,2,3]triazol-5-amine. Format: functional, cell-based.
A short description of series [6]: Upregulation of utrophin transcription in mouse H2K cells at 3 uM after 48 hrs by luciferase reporter assay relative to 2-(4-(diethylamino)phenyl)-6-methyl-2H-benzo[d][1,2,3]triazol-5-amine. The format is functional, cell-based.

We go through 20 compounds from ChEMBL document CHEMBL1806483, “Discovery and SAR of 2-arylbenzotriazoles and 2-arylindazoles as potential treatments for Duchenne muscular dystrophy” (Bioorg Med Chem Lett, 2011).

Converted amounts (≈) assume the structure as drawn.

For `Cc1cc2nn(-c3ccc(Cl)cc3)nc2cc1NC(=O)C(C)C`, in series [1], the EC50 (commonly the midpoint of the concentration-response curve) was more than 30 µM.

As to `CC(C)C(=O)Nc1ccc2cn(-c3ccc(Cl)cc3)nc2c1`, the EC50 in series [1] is 1.73 µM. Further, the Activity in series [2] worked out at 138%. Also, in series [3], the kinetic solubility – broadly, the concentration staying in solution when a stock, usually in DMSO, is diluted into the medium – at 2 h was 3 µM (≈ 0.941 µg/mL). Further, in series [4], the half-life (commonly the time needed for the level to fall by half in the phase considered) was found to be 3.3 h.

With `CCS(=O)(=O)c1ccc2nn(-c3ccc(Cl)c(Cl)c3)nc2c1`, the Activity in series [5] is 52%.

In series [1], `CCN(CC)c1ccc(-n2nc3cc(C)c(NC(=O)c4ccco4)cc3n2)cc1` showed an EC50 of more than 30 µM.

On to `CCN(CC)c1ccc(-n2nc3cc(C)c(NC(=O)C(C)C)cc3n2)cc1`, for which the half-maximal effective concentration (EC50) in series [1] is more than 30 µM.

With `CS(=O)(=O)c1ccc2nn(-c3ccc(Cl)cc3)nc2c1`, the EC50 in series [1] was 11.7 µM.

Consider `CCS(=O)(=O)c1ccc2oc(-c3ccc4ccccc4c3)nc2c1` [EZUTROMID], for which the EC50 in series [1] is 1.8 µM.

In turn, `CS(=O)(=O)c1ccc2nn(-c3ccc4ccccc4c3)nc2c1` had an Activity in series [6] of 63%.

As for `CCC(=O)Nc1cc2nn(-c3ccc(N(CC)CC)cc3)nc2cc1C`, the half-maximal effective concentration (EC50) in series [1] is more than 30 µM.

On to `Cc1cc2nn(-c3ccc(Cl)cc3)nc2cc1NC(=O)c1cccnc1`, for which the EC50 in series [1] was found to be 3.07 µM.

In series [1], `CS(=O)(=O)c1ccc2cn(-c3ccc(Cl)cc3)nc2c1` came in with a concentration giving a half-maximal response (EC50) of more than 30 µM.

In turn, `CCN(CC)c1ccc(-n2nc3ccc(N)cc3n2)cc1` had an EC50 in series [1] of 0.7 µM.

Regarding `CC(C)C(=O)Nc1ccc2nn(-c3ccc(Cl)c(Cl)c3)nc2c1`, in series [6], the Activity was determined as 87%.

The compound `CC(C)S(=O)(=O)c1ccc2cn(-c3ccc(Cl)cc3)nc2c1` came in with an Activity in series [5] of 54%.

Regarding `CC(C)C(=O)Nc1ccc2nn(-c3ccc(Cl)cc3)nc2c1`, in series [1], the EC50 was 0.76 µM. In addition, the solubility (kinetic) at 2 h in series [3] was found to be 1 µM (≈ 0.315 µg/mL). This compound showed a half-life in series [4] of 4.85 h.

Consider `Nc1ccc2nn(-c3ccc(Cl)cc3)nc2c1`, for which, in series [1], the EC50 is more than 30 µM.

Consider `CC(=O)Nc1ccc2nn(-c3ccc(Cl)cc3)nc2c1`, for which, in series [1], the EC50 stood at 1.8 µM.

On to `CCS(=O)(=O)c1ccc2nn(-c3ccc4ccccc4c3)nc2c1`, for which the Activity in series [6] came out at 73%.

The compound `CCS(=O)(=O)c1ccc2cn(-c3ccc(Cl)cc3)nc2c1` returned an EC50 in series [1] of more than 30 µM.

For `CCS(=O)(=O)c1ccc2nn(-c3ccc(Cl)cc3)nc2c1`, in series [1], the EC50 is more than 30 µM.
